Reference: publication PMC3974779, “Pterostilbene-Isothiocyanate Conjugate Suppresses Growth of Prostate Cancer Cells Irrespective of Androgen Receptor Status” (PLoS ONE, 2014)

Biological target: T1, androgen receptor in LNCaP cells (Homo sapiens, UniProt P10275, T878A)
T1 construct: LNCaP cells, that express endogenous AR; endogenous in cells; host or cells: LNCaP
T1 sequence (P10275 1-920 T878A): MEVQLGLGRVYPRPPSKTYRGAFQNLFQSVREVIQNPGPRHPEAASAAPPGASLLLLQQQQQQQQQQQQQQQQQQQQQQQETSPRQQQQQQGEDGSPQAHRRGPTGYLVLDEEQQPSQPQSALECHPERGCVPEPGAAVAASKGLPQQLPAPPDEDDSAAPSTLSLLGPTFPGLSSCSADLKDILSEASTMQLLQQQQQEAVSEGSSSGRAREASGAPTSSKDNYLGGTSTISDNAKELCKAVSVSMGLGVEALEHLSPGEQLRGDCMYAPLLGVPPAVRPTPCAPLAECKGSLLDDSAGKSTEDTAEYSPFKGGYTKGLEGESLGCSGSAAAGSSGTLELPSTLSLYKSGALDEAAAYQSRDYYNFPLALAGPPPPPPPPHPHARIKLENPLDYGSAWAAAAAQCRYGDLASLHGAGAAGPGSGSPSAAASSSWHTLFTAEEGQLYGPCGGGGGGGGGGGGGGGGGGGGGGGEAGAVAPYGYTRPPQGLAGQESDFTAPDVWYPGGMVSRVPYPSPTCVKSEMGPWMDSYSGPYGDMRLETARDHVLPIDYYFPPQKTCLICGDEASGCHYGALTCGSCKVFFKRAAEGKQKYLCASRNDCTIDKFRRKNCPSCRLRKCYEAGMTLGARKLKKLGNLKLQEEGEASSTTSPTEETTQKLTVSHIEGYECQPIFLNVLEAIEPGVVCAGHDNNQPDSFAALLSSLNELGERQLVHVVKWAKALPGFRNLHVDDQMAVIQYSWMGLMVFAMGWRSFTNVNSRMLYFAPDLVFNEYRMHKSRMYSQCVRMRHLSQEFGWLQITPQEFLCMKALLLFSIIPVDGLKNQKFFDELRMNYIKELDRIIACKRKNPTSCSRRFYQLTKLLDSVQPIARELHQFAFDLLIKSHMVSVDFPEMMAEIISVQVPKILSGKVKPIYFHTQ
Assay: AR transactivation luciferase assay with/without exogenous SRC-1 and GRIP-1
Assay type: cell-based
Conditions: 10 μM with DHT
Procedure: The LNCaP cells were grown and transiently transfected with pMMTV-neomycin-luciferase plasmid (300 ng/10^5 cells) in RPMI media supplemented with 10% FBS using polyfect transfection reagent (Qiagen, CA, USA) according to manufacturer’s instructions. […] In case of PC-3 cells, they were similarly transfected, but in addition to pMMTV-neomycin-luciferase construct, they were also transfected with pSG5-hAR-puro plasmid (full length hAR in pSG5 expression vector) in the ratio of 5∶1 as indicated above. For experiments involving co-regulators, 50 ng of co-activator plasmids (25 ng each of GRIP-1 and SRC-1) along with pMMTV-neo-luc (250 ng) were transfected to LNCaP cells. To evaluate the transfection efficiency, 500 ng/105 cells of the SV40 promoter-Renilla luciferase (pRL-SV40) vector (Promega Madison, USA) were co-transfected as internal control. […] The values of luciferase for each lysates were normalized to the Renilla luciferase activity.

For `COc1cc(/C=C/c2ccc(O)c(/C=N/NC(N)=S)c2)cc(OC)c1` [conjugate, Pterostilbene-isothiocyanate conjugate], the “AR transactivation (DHT alone = 100%)” value (with exogenous SRC-1 and GRIP-1) was 102% and the “AR transactivation (DHT alone = 100%)” value (without exogenous co-activators) was 64%.
